For assay [1], the system named is CAL 27 (high EGFR) and SCC-15 (low EGFR) oral cancer cells. In words: Fluorescence microscopy of DY547-siCIP2A uptake in co-culture of high- and low-EGFR oral cancer cells. The format is cell-based, human. As to conditions: co-culture CAL 27 and SCC-15, 4 hours, 100 nM D-siCIP2A. As to the method: Fluorescence microscopy analysis was performed after co-culture of CAL 27 (high EGFR) and SCC-15 (low EGFR) oral cancer cells incubated for 4 hours with 100 nM of DY547-conjugated siRNA targeting CIP2A (D-siCIP2A; red) in complex with GE11R9 peptide at 100:1 and 60:1 (GE11R9:siRNA) molar ratios. SCC-15 cells were stained for vimentin (green) and nuclei (blue) were counterstained with DAPI.
Fluorescence microscopy analysis of the co-culture of CAL 27 (high EGFR) and SCC-15 (low EGFR) oral cancer cells incubated for 4 hours with 100 nM of DY547-conjugated siRNA targeting CIP2A (D-siCIP2A; red) in complex with GE11R9 and 599 peptides at various molar ratios (FIGS. 3A & 3B). SCC-15 cells were stained for vimentin (green) and nuclei (blue) were counterstained with DAPI

The test system of assay [2] is CIP2A. Briefly: Western blot analysis of CIP2A protein expression levels in CAL 27 OSCC cells. The note with it: CAL 27 cells, 48 hours post-treatment, 100 nM siCIP2A vs siNT. The format is cell-based, human. As to the method: Western blot analysis of CIP2A protein expression levels in CAL 27 OSCC cells was performed 48 hours post-treatment with GE11R9 peptide complexed to either 100 nM of siNT or siCIP2A at a 60:1 or 100:1 peptide-to-siRNA molar ratio compared to 599 peptide at a 50:1 molar ratio. β-Actin protein levels were monitored to ensure equal loading of samples.
FIG. 4 is a Western blot analysis of CIP2A protein expression levels in CAL 27 OSCC cells performed 48 hours post-treatment with dual peptide complexed to either 100 nM of siNT or siCIP2A at various GE11R9:599:siRNA molar ratios. β-Actin protein levels were monitored to ensure equal loading of samples.
On the technique in general: A western blot detects proteins with antibodies after separation by electrophoresis.

“Also recorded” adds a separate entry of the source. Where no end group is shown, it is not given here. [ ]: non-standard residue; d: D form.

The source of these data is patent publication US20160271258A1, “Dual Peptide-Mediated Targeted Delivery System” (MUSC FOUNDATION FOR RESEARCH DEVELOPMENT, priority 2015, published 2016).

Regarding “GE11R9: EGFR-targeting peptide: GE11 sequence modified with a nona(D-arginine) stretch (R9) and a C-terminal Lysine (YHWYGYTPQNVIGGGG[dR][dR][dR][dR][dR][dR][dR][dR][dR]K)”, the “targeting / specific uptake of siRNA into high-EGFR versus low-EGFR cells” value in assay [1] is recorded as “deliver siRNAs specifically to EGFR-overexpressing oral cancer cells; also recorded: specifically targets”. In assay [2], the “delivery of bioactive siRNA (siCIP2A functionality, CIP2A protein expression)” value is “not capable of mediating the delivery of bioactive siRNAs; also recorded: does not deliver bioactive siRNAs; also recorded: not able to mediate the delivery of bioactive siRNAs”.
